Legend:
[1] = Solubility of solid forms of compound (I)
[2] = tested on: GABAA (γ-aminobutyric acidA) receptors; experiment: GABAA receptor ligand activity; format: binding; conditions: amorphous form, stated to be like crystalline compound (I)
[3] = tested on: GABAA (γ-aminobutyric acidA) receptors; conditions: as described in PCT/EP2006/063243 and U.S. 60/692866; cited from earlier work

Question: For `CC(=O)N(C)c1cc(-c2ccnc3c(C(=O)c4cccs4)cnn23)ccc1F` [crystalline form of compound (I), N-{2-Fluoro-5-[3-(thiophene-2-carbonyl)-pyrazolo[1,5-a]pyrimidin-7-yl]-phenyl}-N-methyl-acetamide], which solubility ([1]; crystalline form, qualitative statement) is on record?
Answer: very low soluble

Question: For `CC(=O)N(C)c1cc(-c2ccnc3c(C(=O)c4cccs4)cnn23)ccc1F` [amorphous form, N-{2-Fluoro-5-[3-(thiophene-2-carbonyl)-pyrazolo[1,5-a]pyrimidin-7-yl]-phenyl}-N-methyl-acetamide], which “ligand of GABAA” value [2] is on record?
Answer: potent ligand

Question: And the “solubility of the amorphous form relative to crystalline product” value ([1]; amorphous versus crystalline product)?
Answer: about twice as high

Question: Which “ligand of GABAA receptors” value [3] does the source give for `CC(=O)N(C)c1cc(-c2ccnc3c(C(=O)c4cccs4)cnn23)ccc1F` [compound (I), N-{2-Fluoro-5-[3-(thiophene-2-carbonyl)-pyrazolo[1,5-a]pyrimidin-7-yl]-phenyl}-N-methyl-acetamide] here?
Answer: potent ligand

Reference: US8338436B2, “Amorphous form of N-{2-fluoro-5-[3-(thiophene-2-carbonyl)-pyrazolo[1,5-a]pyrimidin-7-yl]-phenyl}-N-methyl-acetamide” (Ferrer International, S.A., priority 2006, dated 2012)
